The values below come from patent US20050009840A1 (SUGEN, INC., priority 2003, published 2005).

Each structure is given as a SMILES string.

T1 sequence (P08581 1078-1345 limits assumed): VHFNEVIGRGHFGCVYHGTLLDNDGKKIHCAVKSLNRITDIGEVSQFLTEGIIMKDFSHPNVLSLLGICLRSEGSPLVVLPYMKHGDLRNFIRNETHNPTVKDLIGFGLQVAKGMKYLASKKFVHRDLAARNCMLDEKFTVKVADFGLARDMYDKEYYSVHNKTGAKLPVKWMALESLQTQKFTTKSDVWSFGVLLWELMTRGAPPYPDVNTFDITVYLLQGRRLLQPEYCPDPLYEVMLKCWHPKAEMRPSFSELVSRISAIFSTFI

One assay concerns the target T1, Met kinase domain (GST fusion protein) (Homo sapiens, UniProt P08581).
T1 construct: Purified GST fusion protein containing the Met kinase domain
Kind of assay: Met transphosphorylation assay (ELISA, poly(glu-tyr) substrate).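 Note: Cell-free ELISA with plate-bound poly(Glu:Tyr 4:1) phosphorylated by GST-fused Met kinase domain plus ATP and Mn2+, phosphotyrosine detected by anti-phosphotyrosine antibody with HRP and ABTS read-out.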 As to conditions: Table 2; read-out: Met IC50. The assay is classed as biochemical. Background: ELISA stands for enzyme-linked immunosorbent assay.
Broadly, the IC50 is the concentration at which inhibition is half-maximal. Take `Nc1ncc(-c2ccc(C(=O)NCCN3CCOCC3)cc2)cc1OCc1ccc(F)cc1Cl` [Example I-209, 4-[6-Amino-5-(2-chloro-4-fluoro-benzyloxy)-pyridin-3-yl]-N-(2-morpholin-4-yl-ethyl)-benzamide]: the IC50 amounted to 11 µM.
For `CN1CCN(C(=O)c2ccc(-c3cnc(N)c(OCc4ccccc4C(F)(F)F)c3)cc2)CC1` [Example I-188, {4-[6-Amino-5-(2-trifluoromethyl-benzyloxy)-pyridin-3-yl]-phenyl}-(4-methyl-piperazin-1-yl)-methanone], the half-inhibitory concentration (IC50) is 1.64 µM.
On the same count and under the same terms, the result for `CC(Oc1cc(-c2cccc(OCCN3CCOCC3)c2)cnc1N)c1c(Cl)ccc(F)c1Cl` (stereo not drawn) [Example I-358, 3-[1-(2,6-Dichloro-3-fluoro-phenyl)-ethoxy]-5-[3-(2-morpholin-4-yl-ethoxy)-phenyl]-pyridin-2-ylamine] reads 0.22 µM; that for `Nc1ncc(-c2cccc(C(=O)N3CCC(N)CC3)c2)cc1OCc1c(F)ccc(F)c1Cl` [Example I-228, {3-[6-Amino-5-(2-chloro-3,6-difluoro-benzyloxy)-pyridin-3-yl]-phenyl}-(4-amino-piperidin-1-yl)-methanone], 0.23 µM; that for `CC(Oc1cc(-c2ccc(OCCN3CCCC3)cc2)cnc1N)c1c(Cl)ccc(F)c1Cl` (stereo not drawn) [Example I-355, 3-[1-(2,6-Dichloro-3-fluoro-phenyl)-ethoxy]-5-[4-(2-pyrrolidin-1-yl-ethoxy)-phenyl]-pyridin-2-ylamine], 0.068 µM.
The same measure, in the same setting: the result for `Nc1ncc(-c2cccc(NS(=O)(=O)CCN3CCC(O)CC3)c2)cc1OCc1c(F)ccc(F)c1Cl` [Example I-262, 2-(4-Hydroxy-piperidin-1-yl)-ethanesulfonic acid {3-[6-amino-5-(2-chloro-3,6-difluoro-benzyloxy)-pyridin-3-yl]-phenyl}-amide] reads 1.5 µM; that for `Nc1ncc(-c2ccc(NS(=O)(=O)CCNCC3CC3)cc2)cc1OCc1c(F)ccc(F)c1Cl` [Example I-251, 2-(Cyclopropylmethyl-amino)-ethanesulfonic acid {4-[6-amino-5-(2-chloro-3,6-difluoro-benzyloxy)-pyridin-3-yl]-phenyl}-amide], 0.075 µM.
Same read-out and setting: for `CC(Oc1cc(-c2cccc(C(=O)NCCN3CCOCC3)c2)cnc1N)c1c(F)ccc(F)c1Cl` (stereo not drawn) [Example I-350, 3-{6-Amino-5-[1-(2-chloro-3,6-difluoro-phenyl)-ethoxy]-pyridin-3-yl}-N-(2-morpholin-4-yl-ethyl)-benzamide] the value was 0.39 µM.

Staying with this assay, now noted: plain numbers in column Met IC50 (μM) of Table 2; read-out: Met IC50.
Regarding `CC(Oc1cc(-c2cc(C(=O)N3CCN(C)CC3)ccn2)cnc1N)c1c(F)ccc(F)c1Cl` (stereo not drawn) [Example I-518, {6′-Amino-5′-[1-(2-chloro-3,6-difluoro-phenyl)-ethoxy]-[2,3′]bipyridinyl-4-yl}-(4-methyl-piperazin-1-yl)-methanone], the half-inhibitory concentration (IC50) was determined as 0.209 µM.
For the molecule `CC(Oc1cc(-c2ccc(C(=O)N3CCN(C)CC3)nc2)cnc1N)c1c(Cl)ccc(F)c1Cl` (stereo not drawn) [Example I-514, {6′-Amino-5′-[1-(2,6-dichloro-3-fluoro-phenyl)-ethoxy]-[3,3′]bipyridinyl-6-yl}-(4-methyl-piperazin-1-yl)-methanone], the IC50 came to 0.0213 µM.
Regarding `CC(Oc1cc(-c2cccc(C(=O)NCCN3CCOCC3)c2)cnc1N)c1c(Cl)cccc1Cl` (stereo not drawn) [Example I-390, 3-{6-Amino-5-[1-(2,6-dichloro-phenyl)-ethoxy]-pyridin-3-yl}-N-(2-morpholin-4-yl-ethyl)-benzamide], the IC50 came out at 0.12 µM.
In the case of `Nc1ncc(-c2cncnc2)cc1OCc1c(F)ccc(F)c1Cl` [Example I-503, 3-(2-Chloro-3,6-dlfluoro-benzyloxy)-5-pyrimidin-5-yl-pyridin-2-ylamine], the IC50 came out at 2.15 µM.
As to `CC(Oc1cc(C#CCNC(=O)CN2CC[C@@H](O)C2)cnc1N)c1c(Cl)ccc(F)c1Cl` (stereo partly drawn) [Example I-427, N-(3-{6-Amino-5-[1-(2,6-dichloro-3-fluoro-phenyl)-ethoxy]-pyridin-3-yl}-prop-2-ynyl)-2-((R)-3-hydroxy-pyrrolidin-1-yl)-acetamide], the concentration for half-maximal inhibition (IC50) came to 0.011 µM.

Still in this assay, the particulars now being: read-out: Met IC50.
On to `Nc1ncc(-c2ccc(C(=O)N3CCC[C@@H]3CN3CCCC3)cc2)cc1OCc1c(F)cccc1F` [Example I-122], for which the IC50 stood at 1.21 µM.
Regarding `Nc1ncc(-c2ccc(C(=O)NCCN3CCOCC3)cc2)nc1OCc1cccc(F)c1C(F)(F)F` [II-94, 4-[5-Amino-6-(3-fluoro-2-trifluoromethyl-benzyloxy)-pyrazin-2-yl]-N-(2-morpholin-4-yl-ethyl)-benzamide], the 50% inhibitory concentration (IC50) was determined as 0.22 µM.
The same measure, in the same setting: for `CC(C)(C)OC(=O)n1cccc1-c1cnc(N)c(OCc2c(Cl)cccc2Cl)c1` [Example I-6, 2-[6-Amino-5-(2,6-dichloro-benzyloxy)-pyridin-3-yl]-pyrrole-1-carboxylic acid tert-butyl ester] the value was above 20 µM.
On the same count and under the same terms, the result for `CC(Oc1nc(-c2ccc(NS(=O)(=O)CCN3CC[C@@H](O)C3)cc2)cnc1N)c1c(Cl)ccc(F)c1Cl` (stereo partly drawn) [II-143, 2-((R)-3-Hydroxy-pyrrolidin-1-yl)-ethanesulfonic acid (4-{5-amino-6-[1-(2,6-dichloro-3-fluoro-phenyl)-ethoxy]-pyrazin-2-yl}-phenyl)-amide] reads 0.19 µM; that for `CC(Oc1nc(-c2cccc(C(=O)N3CCC(NC4CC4)CC3)c2)cnc1N)c1c(Cl)ccc(F)c1Cl` (stereo not drawn) [II-136, (3-{5-Amino-6-[1-(2,6-dichloro-3-fluoro-phenyl)-ethoxy]-pyrazin-2-yl}-phenyl)-(4-cyclopropylamino-piperidin-1-yl)-methanone], 0.15 µM.
Still for that read-out and setting: the result for `CC(Oc1nc(-c2cncc(C(=O)NCCN3CCOCC3)c2)cnc1N)c1c(Cl)ccc(F)c1Cl` (stereo not drawn) [II-208, 5-{5-Amino-6-[1-(2,6-dichloro-3-fluoro-phenyl)-ethoxy]-pyrazin-2-yl}-N-(2-morpholin-4-yl-ethyl)-nicotinamide] reads 0.038 µM; that for `Nc1ncc(-c2ccc(C(=O)NCCCN3CCOCC3)cc2)nc1OCc1c(F)ccc(F)c1Cl` [II-43, 4-[5-Amino-6-(2-chloro-3,6-difluoro-benzyloxy)-pyrazin-2-yl]-N-(3-morpholin-4-yl-propyl)-benzamide], 0.59 µM; that for `CN1CC=C(c2c[nH]c3ccc(-c4cnc(N)c(OCc5c(Cl)cccc5Cl)c4)cc23)CC1` [Example I-59, 3-(2,6-Dichloro-benzyloxy)-5-[3-(1-methyl-1,2,3,6-tetrahydro-pyridin-4-yl)-1H-indol-5-yl]-pyridin-2-ylamine], 1.57 µM.
On to `CCN(CC)CCS(=O)(=O)Nc1ccc(-c2cnc(N)c(OC(C)c3c(Cl)ccc(F)c3Cl)n2)cc1` (stereo not drawn) [II-140, 2-Diethylamino-ethanesulfonic acid (4-{5-amino-6-[1-(2,6-dichloro-3-fluoro-phenyl)-ethoxy]-pyrazin-2-yl}-phenyl)-amide], for which the IC50 was found to be 0.35 µM.
Turning to `CC(Oc1nc(-c2ccc(NC(=O)NCCN3CCCC3)cc2)cnc1N)c1c(F)ccc(F)c1Cl` (stereo not drawn) [II-184, 1-(4-{5-Amino-6-[1-(2-chloro-3,6-difluoro-phenyl)-ethoxy]-pyrazin-2-yl}-phenyl)-3-(2-pyrrolidin-1-yl-ethyl)-urea], the half-inhibitory concentration (IC50) was 0.18 µM.
The same measure, in the same setting: the result for `CN(C)[C@H]1CCN(C(=O)c2ccc(-c3cnc(N)c(OCc4c(F)cccc4Cl)c3)cc2)C1` [Example I-144, {4-[6-Amino-5-(2-chloro-6-fluoro-benzyloxy)-pyridin-3-yl]-phenyl}-[(3S)-3-dimethylamino-pyrrolidin-1-yl]-methanone] reads 1.7 µM; that for `CC(Oc1nc(-c2ccc(C(=O)NCCN3CCCC3)cc2)cnc1N)c1c(Cl)cccc1Cl` (stereo not drawn) [II-166, 4-{5-Amino-6-[1-(2,6-dichloro-phenyl)-ethoxy]-pyrazin-2-yl}-N-(2-pyrrolidin-1-yl-ethyl)-benzamide], 0.11 µM; that for `Nc1ncc(-c2ccc(OCc3ccccc3)c(F)c2)cc1OCc1c(Cl)cccc1Cl` [Example I-34, 5-(4-Benzyloxy-3-fluoro-phenyl)-3-(2,6-dichloro-benzyloxy)-pyridin-2-ylamine], 13.5 µM.
Regarding `CN1CCN(C(=O)c2ccc(-c3cnc(N)c(OCc4cccc(F)c4C(F)(F)F)n3)cc2)CC1` [II-128, {4-[5-Amino-6-(3-fluoro-2-trifluoromethyl-benzyloxy)-pyrazin-2-yl]-phenyl}-(4-methyl-piperazin-1-yl)-methanone], the concentration for half-maximal inhibition (IC50) is 0.15 µM.
For the molecule `CC(Oc1nc(-c2ccc(NS(=O)(=O)CCN3CCC(O)CC3)cc2)cnc1N)c1c(Cl)ccc(F)c1Cl` (stereo not drawn) [II-141, 2-(4-Hydroxy-piperidin-1-yl)-ethanesulfonic acid (4-{5-amino-6-[1-(2,6-dichloro-3-fluoro-phenyl)-ethoxy]-pyrazin-2-yl}-phenyl)-amide], the IC50 stood at 0.21 µM.
On the same count and under the same terms, the result for `CC(Oc1nc(-c2ccnc(C(=O)N3CCN(C)CC3)c2)cnc1N)c1c(Cl)ccc(F)c1Cl` (stereo not drawn) [II-206, (4-{5-Amino-6-[1-(2,6-dichloro-3-fluoro-phenyl)-ethoxy]-pyrazin-2-yl}-pyridin-2-yl)-(4-methyl-piperazin-1-yl)-methanone] reads 0.1 µM; that for `Nc1ncc(-c2ccc(C(=O)N3CCC[C@@H]3CN3CCCC3)cc2)cc1OCc1ccc(F)cc1C(F)(F)F` [Example I-111, {4-[6-amino-5-(4-fluoro-2-trifluoromethyl-benzyloxy)-pyridin-3-yl]-phenyl)[(2R)-2-pyrrolidin-1-ylmethyl-pyrrolidin-1-yl]-methanone], 1.51 µM; that for `CC(Oc1nc(-c2ccc(C(=O)NCCCN3CCCC3)cc2)cnc1N)c1c(Cl)cccc1Cl` (stereo not drawn) [II-167, 4-{5-Amino-6-[1-(2,6-dichloro-phenyl)-ethoxy]-pyrazin-2-yl}-N-(3-pyrrolidin-1-yl-propyl)-benzamide], 0.22 µM.
Still for that read-out and setting: for `CC(=O)N1CCN(Cc2c[nH]c3ccc(-c4cnc(N)c(OCc5c(F)ccc(F)c5Cl)c4)cc23)CC1` [Example I-70, 1-(4-{5-[6-Amino-5-(2-chloro-3,6-difluoro-benzyloxy)-pyridin-3-yl]-1H-indol-3-ylmethyl}-piperazin-1-yl)-ethanone] the value was 0.8 µM; for `Nc1ncc(-c2ccc3[nH]cc(CN4CCOCC4)c3c2)nc1OCc1c(F)ccc(F)c1Cl` [II-68, 3-(2-Chloro-3,6-difluoro-benzyloxy)-5-(3-morpholin-4-ylmethyl-1H-indol-5-yl)-pyrazin-2-ylamine], 1.15 µM.
